One data set relates to dogs. To be noted: exogenous deuterium oxide; cited from earlier work.
In data set [1] the test system is human lung cancer A549 cells. Description: Cell cycle by PI single staining (flow cytometry). In kind it is cell-based. To be noted: deuterium oxide 30% v/v, 72 hours. Here is the method: Effect of deuterium oxide on the cell cycle of human lung cancer A549 cells and human colon cancer HCT-116 cells Human lung cancer A549 cells and human colon cancer HCT-116 cells were provided by NANJING […] BIOTECH. CO., LTD., and cultured in an incubator at 37° C., 5% CO2 and saturated humidity. A KGA511 Cell cycle assay kit was provided by NANJING […] BIOTECH. CO., LTD. The flow cytometer was FACS Calibur provided by Becton-Dickinson, US. […] The cell suspension was centrifuged at 800 to 1,000 rpm for 5 min, and the supernatant was discarded; 1.4. A complete culture medium was added to the cell pellet which was well mixed by gentle pipetting, the cell suspension was transferred to a culture flask, and the cells were cultured by supplementing culture medium. […] When all the cells became round, an equal volume of culture medium containing serum was added to cease the digestion; 2.4. The cells were blown by pipetting to suspend, then drawn into a 15 ml centrifugal tube, and centrifuged at 1000 rpm for 5 min; 2.5. […] 1. Cells growing in the exponential phase were digested and inoculated to a 6-well plate; on the next day, after the cells attached to the wall, cell culture media containing corresponding test drugs were added according to different groups, and a negative control group was also set; 2. […] The cells were washed with PBS once (centrifuged at 2,000 rpm for 5 min), and 5×10^5 cells were collected; 4. […] In a detection apparatus, red fluorescence with an excitation wavelength of 488 nm was recorded.

Data set [2] relates to Ehrlich ascites tumor (EAC). The data set is described as follows: Survival of Ehrlich ascites tumor-bearing mice, intraperitoneal perfusion (lavage) with deuterium oxide and 5-FU. It is filed as in vivo, ICR mice. The following applies: i.p., 10 days; for MST: control 14.1 ± 1.9. The protocol: Studying 1: Efficacy of intraperitoneal perfusion (lavage) with deuterium oxide in combination with 5-fluorouracil on Ehrlich ascites tumor (EAC)-bearing mice.
Laboratory animal: 4 to 5 week-aged male ICR mice, provided by Shanghai SIPPR-BK Laboratory Animal Co. Ltd.
1. Modeling: EAC ascitic fluid was taken and adjusted to 1×10^7 cells/ml, which was inoculated into the peritoneal cavity of mice at 0.1 ml/mouse. 2. Grouping and dosing: the animals were randomized 3 days after inoculation, and meanwhile drugs were given to mice in each group, following the dosing scheme shown in Table 10.
In Table 10, “Sodium chloride deuterium oxide solution 0.1 ml/animal+5-FU 20 mg/kg” means that each mouse was given 0.1 ml sodium chloride deuterium oxide solution, in which 5-FU had been dissolved to make a dose of 20 mg/kg.
After the dosing, ascitic fluid was taken from 3 mice from each group, the volume of the ascitic fluid was measured, the number of tumor cells in the ascitic fluid was counted, and the rest of animals were continuously fed. Median survival time (MST) was recorded for animals in each group to evaluate the survival time for each group.
The comparison between the treatment group and the control group was expressed by T/C (%) which is calculated by the following equation: […]
T MST: MST of the treatment group; C MST: MST of the negative control group.
The evaluation criterion uses 125% as a cut-off threshold. When T/C %≧125%, effective, otherwise ineffective.
The mean value was expressed in X±SD. Inter-group analysis was statistically performed with t test. The results were statistically analyzed using SPSS (Statistical Package for the Social Science) 17.0.

For a further data set, the system named is malignant tumors. To be noted: as a single drug in clinical settings; cited from earlier work.
In data set [3] the test system is human colon cancer HCT-116 cells inoculated into the peritoneal cavity. The data set is described as follows: Survival of nude mice bearing HCT-116 cells, 42° C. intraperitoneal retention lavage with hydroxyethyl starch or sodium chloride deuterium oxide solution and 5-FU. The following applies: 42° C. NS 10 ml/kg + 5-FU 20 mg/kg, i.p. lavage x 5. In kind it is in vivo. The protocol: Comparison of survival time of nude mice bearing human colon cancer HCT-116 cells upon 42° C. hyperthermic intraperitoneal retention lavage using a hydroxyethyl starch deuterium oxide solution in combination with 5-FU and using a sodium chloride deuterium oxide solution in combination with 5-FU.
Animal: 4 to 5 week-aged male nude mice, provided by Shanghai SIPPR-BK Laboratory Animal Co. Ltd.
Cell lines: human colon cancer cell line HCT-116 was provided by NANJING KEYGEN BIOTECH. CO., LTD.
Modeling: 0.2 ml suspension of HCT-116 cancer cells containing 1×10^7 cells/ml (2×10^6 cells in total) was inoculated into the peritoneal cavity of the nude mice.
Grouping and dosing: the mouse model was established 7 to 8 days after inoculation into the nude mice, and the mice were randomized with 18 animals/group.
5-FU was separately dissolved in the hydroxyethyl starch deuterium oxide solution at 42° C., and in the sodium chloride deuterium oxide solution at 42° C., for intraperitoneal lavage of tumor-bearing mice.
1). […]
The peritoneal cavity of nude mice was lavaged with the above compositions which were retained for 20 min in the peritoneal cavity after being introduced, which was performed once a day for 5 successive times. The body weight and abdomen circumference of the nude mice were measured on each day before administration of the drugs, and the daily living status of mice was observed. […]

On to `[2H]O[2H]` [Deuterium oxide], for which the “concentration in the body that causes a toxic effect” value with dogs is reported as 30%. Moreover, the “G2 Phase” value in data set [1] (control 6.21 ± 4.52) is listed as 13.47 ± 3.94%. Also, the “S Phase” value in data set [1] (control 13.50 ± 1.33) is 0.31 ± 0.28%. Also, the “G1 Phase” value in data set [1] (control 80.29 ± 5.02) came to 86.23 ± 3.69%.

Consider `O=c1[nH]cc(F)c(=O)[nH]1` [Example 5-FU, 5-fluorouracil], for which the “T/C(%)” value in data set [2] (5-FU 20 mg/kg in NS) was 154.6%; in data set [2] (5-FU 30 mg/kg in NS), 158.1%; in data set [3], 138.7%. The “MST” value is on record as 21.8 ± 2.9 days in data set [2] (5-FU 20 mg/kg in NS), 22.3 ± 4.9 days in data set [2] (5-FU 30 mg/kg in NS) and 17.2 ± 2.2 days in data set [3] (control 12.4 ± 2.9). The overall response rate with malignant tumors is recorded as 10%.
